Laboratory results published in patent publication US20260000496A1, “MATERIALS AND METHODS FOR DRUG-INDUCED GINGIVAL OVERGROWTH” (Optimed Technology, Inc., priority 2019, published 2026).

Columns and labels:
p-P65 = test: Immunofluorescence of p-P65 nuclear translocation in oral keratinocytes; assay type: cell-based, human; details: 24 hours
Protocol: Immunostaining and fluorescence microscopy. The cultured cells were fixed with 4% paraformaldehyde followed by permeabilization with phosphate buffered saline (PBS) containing 0.1% Triton X-100 (PBS-T), and blocking with PBS-T containing 5% bovine serum albumin (BSA). Then, the cells were incubated with anti-pP65 antibody (Cell Signaling, USA) followed by Alexa Fluor 488 conjugated-goat anti-rabbit secondary antibody (Invitrogen, Grand Island). Rhodamine phalloidin (Invitrogen) and 4′,6-diamidino-2-phenylindole (Vector labs, Burlingame) were added to visualize the actin and nucleus respectively. The samples were mounted and examined using a Zoe microscope (BioRad, USA). The image analyses were performed using the ImageJ (NIH) software.
Oral Keratinocytes cells were cultured, and treated with CSA, LPS or FA alone or with combinations and incubated for 24 hours. The immunofluorescent images were taken to determine the translocation of p-P65 (green) to the nucleus (blue). Cells were counterstained with Phalloidin (cytoskeleton, red) and DAPI (nucleus).
Oral Keratinocytes cells were seeded in 24 well plates. […] Translocation of phospho-p65 (p-P65) protein to the nucleus was determined by fluorescence microscopy as shown in the green color. The morphology of cells and nucleus position were determined by palloidin and DAPI staining shown by red and blue colors respectively.

TLR2 = test: FACS of surface TLR2 on oral keratinocytes; assay type: cell-based, human; details: LPS (10 μg/ml), Phe (10 μg/ml), different concentration of folic acid, 24 hours
Protocol: Flow cytometry. NOKSI cells were seeded in 100 mm plates with a density of 1×10^6 cells per plate. Cells were treated with drugs, LPS, and folic acid alone or in combination. After NOKSI were detached using Corning Cell Lifter (Corning) and 10 mM EDTA in PBS, the cells were washed with FACS buffer (PBS containing 1% BSA [Sigma] and 2 mM EDTA). Cells were stained by immunofluorescence for CD282 (TLR2) and CD284 (TLR4). Fluorescent labeled antibodies at a dilution of 1:1000 in staining buffer with 2% FBS in PBS were added and incubated for 30 min in dark on ice. Cells were centrifuged and washed thrice in staining buffer and passed through a 70 μm cell strainer before data acquisition. Data analysis was performed using FlowJo (TreeStar, Ashland, OR, USA). All incubations were performed on ice.
Oral Keratinocytes Cells were treated with only LPS (10 μg/ml) for 24 hours. […] Cells were treated with LPS (10 μg/ml) and Phe (10 μg/ml) for 24 hours. […] Cells were treated with LPS (10 μg/ml), Phe (10 μg/ml), and FA ([…]) for 24 hours. […] FIG. 16.

Question: Which results are given for `Nc1nc2ncc(CNc3ccc(C(=O)N[C@@H](CCC(=O)O)C(=O)O)cc3)nc2c(=O)[nH]1` [folic acid]?
Answer: translocation of p-P65 to the nucleus (p-P65; CSA, LPS or FA alone or in combinations): inhibits CSA-induced activation of phospho-P65; translocation of phospho-p65 (p-P65) protein to the nucleus (p-P65; LPS, Phe, FA each 10 μg/ml): reduced nuclear translocation of p-P65; TLR2 receptor on the cell surface (TLR2): do not alter
